From patent US4283494A, “Microbial lipase, process for its preparation and microbiologically pure culture therefor” (Meito Sangyo Kabushiki Kaisha, priority 1978, dated 1981)
Like-named read-outs stand apart in the source and are kept apart here.

Experiments:
[1] = system: microbial lipase of the invention, Alcaligenes sp. PL-679 Meito (FERM-P No. 3783, ATCC 31371); settings: 10 min
[2] = system: Lipase II of Japanese Laid-Open Patent Publication No. 21387/77, Alcaligenes sp. PL-266 Meito; settings: cited from earlier work
[3] = system: Lipase I of Japanese Laid-Open Patent Publication No. 21387/77, Alcaligenes sp. PL-266 Meito; settings: cited from earlier work
[4] = system: microbial lipase of the invention, Alcaligenes sp. PL-679 Meito (FERM-P No. 3783, ATCC 31371); test: Lipase activity inhibition by inhibiting reagents (contact at 37° C. for 10 minutes, then olive oil emulsion assay); format: biochemical; settings: inhibiting reagent 10^-2 mole, lipase about 3 U/ml
Procedure: An aqueous solution of the lipase sample (about 3 units/ml) is contacted with each of the inhibiting agents at 37° C. for 10 minutes, and the lipase activity is measured.
The lipase in a concentration of about 3 U/ml is contacted with various inhibiting reagents at 37° C. for 10 minutes, and then the lipase activity is measured.
Glycine buffer (1 mole, pH 8.7): 2.0 ml
Olive oil emulsion: 2.5 ml
The olive oil emulsion is prepared by adding 20 g of olive oil to 180 ml of a 10% aqueous solution of gum arabic, homogenizing the mixture at 11,000 r.p.m. for 15 minutes while it is cooled to 5°-10° C., and adjusting the pH of the homogenized mixture to 8.7.
The reaction mixture is placed in a 25 ml glass stopper tube, and reacted exactly for 10 minutes at 37° C. Then, the reaction is stopped by adding 1 ml of 2 N sulfuric acid, and 15 ml of a mixture of n-heptane and isopropanol in a ratio of 11:4 is added. The mixture is vigorously shaken for 30 seconds, and allowed to stand for more than 30 minutes. […] The mixture is treated in the same way as above, and the resulting product is titrated with a potassium hydroxide solution, and the measured value obtained is substracted from the measured value obtained above. The amount of fatty acid liberated is calculated from the resulting titration value with reference to the standard line prepared by using a known amount of palmitic acid. […]

[5] = concentration of bile salt 0.2%
[6] = concentration of bile salt 0.4%
[7] = concentration of bile salt 0.6%
[8] = concentration of bile salt 0.8%

SMILES	Lipase activity, percentage based on the lipase activity in the absence of a bile salt [1, 5] [%]	Lipase activity, percentage based on the lipase activity in the absence of a bile salt [1, 6] [%]	Lipase activity, percentage based on the lipase activity in the absence of a bile salt [1, 7] [%]	Lipase activity, percentage based on the lipase activity in the absence of a bile salt [1, 8] [%]	further results
C[C@H](CCC(=O)NCC(=O)O)[C@H]1CC[C@H]2[C@@H]3[C@H](O)C[C@@H]4C[C@H](O)CC[C@]4(C)[C@H]3C[C@H](O)[C@]12C [Glycocholate]	218	221	232	224	
O=C(O)CI [monoiodoacetic acid]					Activity inhibition by monoiodoacetic acid ([2]; concentration 10^-3 mole): Not inhibited; Activity inhibition by monoiodoacetic acid ([3]; concentration 10^-3 mole): Not inhibited
C[C@H](CCC(=O)O)[C@H]1CC[C@H]2[C@@H]3[C@H](O)C[C@@H]4C[C@H](O)CC[C@]4(C)[C@H]3C[C@H](O)[C@]12C [Cholate]	197	221	211	229	
CCOC(=O)OC(=O)OCC [ethoxyformic anhydride]					Activity inhibition of the lipase [4]: about 70%
O=C1O[C@H]([C@@H](O)CO)C([O-])=C1O.[Na+] [sodium ascorbate]					Activity inhibition by sodium ascorbate ([2]; concentration 10^-2 mole): Not inhibited; Activity inhibition by sodium ascorbate ([3]; concentration 10^-2 mole): Not inhibited
C[C@H](CCC(=O)O)[C@H]1CC[C@H]2[C@@H]3CC[C@@H]4C[C@H](O)CC[C@]4(C)[C@H]3C[C@H](O)[C@]12C [Desoxycholate]	289	300	305	303	
II [iodine]					Activity inhibition of the lipase [4]: about 95%
